According to US8454977B2, “Non-toxic biofilm inhibitor” (priority 2005, dated 2013):
“Also recorded” adds a separate entry of the source.

Experiments:
[1] = tested on: biotinylated purified PAK pili
[2] = tested on: biotinylated viable PAKwt cells; assay type: cell-based, Pseudomonas aeruginosa
P. aeruginosa strain KB7 = test: Epifluorescence microscopy of cells bound to stainless steel, strain KB7; assay type: cell-based, Pseudomonas aeruginosa; settings: PAK(128-144)ox 51 nM; PAK(134-140) 100 μg/ml; 60 min 37° C.
Protocol: (§1) FIG. 2. Epifluorescence microscopy of stainless steel after binding of P. aeruginosa strains PAK (panels a, b, and c), PAO (panels d, e, and f), K122-4 (panels g, h, and i), KB7 (panels j, k, and l), PAKNP (panels m, n, and o) and PAKMS591 (panels p, q, and r). Viable cells were allowed to incubate directly (panels a, d, g, j, m, and p) with a stainless steel grade 304 surface for 60 min at 37° C. and washed 5 times with 10 mM PBS pH 7.4 containing 0.05% BSA. The cells were then stained using acrydine orange and a 40× objective field was photographed with a Leitz Laborlux microscope equipped with epifluorescent illumination and a Wild automatic exposure 35 mm camera system. Note that bound Pseudomonas cells are stained orange while green fluorescence indicates non-specific interaction of the fluorochrome with the surface. P. aeruginosa strains PAK, PAO, K122-4, KB7, PAKNP, and PAKMS591 were incubated with the synthetic peptide PAK(128-144d)ox (panels b, e, h, k, n, and q respectively) or with synthetic peptide PAK(134-140) (panels c, f, i, l, o, and r respectively).
(§2) Stainless steel plates, prepared and utilized in bacterial binding studies as described above, were incubated in 1 mM Acridine Orange stain for one minute, and thoroughly rinsed with distilled water. […] Micrographs were recorded with Kodak Colormax 35 mm film, processed and digitally scanned immediately after film processing.

P. aeruginosa strain PAO = test: Epifluorescence microscopy of cells bound to stainless steel, strain PAO; assay type: cell-based, Pseudomonas aeruginosa; settings: PAK(128-144)ox 51 nM; PAK(134-140) 100 μg/ml; 60 min 37° C.
Protocol: as §1, §2

[3] = tested on: P. aeruginosa strain PAKNP; test: Epifluorescence microscopy of cells bound to stainless steel, strain PAKNP; assay type: cell-based, Pseudomonas aeruginosa; settings: 60 min 37° C.
Protocol: as §1, §2

[4] = tested on: respiratory epithelial cells; settings: Yu et al., 1996; cited from earlier work
[5] = tested on: P. aeruginosa strain K122-4; test: Epifluorescence microscopy of cells bound to stainless steel, strain K122-4; assay type: cell-based, Pseudomonas aeruginosa; settings: PAK(128-144)ox 51 nM; PAK(134-140) 100 μg/ml; 60 min 37° C.
Protocol: as §1, §2

[6] = tested on: P. aeruginosa strain PAKMS591; test: Epifluorescence microscopy of cells bound to stainless steel, strain PAKMS591; assay type: cell-based, Pseudomonas aeruginosa; settings: 60 min 37° C.
Protocol: as §1, §2

P. aeruginosa strain PAK = test: Epifluorescence microscopy of cells bound to stainless steel, strain PAK; assay type: cell-based, Pseudomonas aeruginosa; settings: PAK(128-144)ox 51 nM; PAK(134-140) 100 μg/ml; 60 min 37° C.
Protocol: as §1, §2

Sequence of biotinylated purified PAK pili (P02973 7-150): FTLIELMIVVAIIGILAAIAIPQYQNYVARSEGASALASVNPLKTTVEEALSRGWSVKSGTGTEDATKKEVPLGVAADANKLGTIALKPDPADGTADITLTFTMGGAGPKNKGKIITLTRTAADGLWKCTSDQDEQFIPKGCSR

Row | Substance | effect of peptide on binding of biotinylated PAK pili to stainless steel [1] | effect of peptide on binding of biotinylated PAKwt cells to stainless steel [2] | effect on binding of strain KB7 to stainless steel (microscopy) (P. aeruginosa strain KB7) | effect on binding of strain PAO to stainless steel (microscopy) (P. aeruginosa strain PAO) | effect on binding of strain PAKNP (pilA-) to stainless steel (microscopy) [3] | affinity for epithelial cells / mucosal cell surface receptors [4] | effect on binding of strain K122-4 to stainless steel (microscopy) [5] | effect on binding of strain PAKMS591 (fliC-) to stainless steel (microscopy) [6] | effect on binding of strain PAK to stainless steel (microscopy) (P. aeruginosa strain PAK) | Ki ([1]; read-out: apparent Ki of the peptide inhibition of PAK pilus binding to steel) | Ki ([2]; read-out: apparent Ki of the peptide inhibition of PAKwt binding to steel)
1 | Ac-PQYQNYVARSEGASALASVNPLKTTVEEADP-OH [PAK(22-52)] | do not inhibit the binding of pili | do not inhibit cell binding | – | – | – | – | – | – | – | – | –
2 | Ac-D-E-Q-F-I-P-K-amide (Ac-DEQFIPK-NH2) [PAK(134-140)] | – | do not inhibit cell binding; also recorded: did not inhibit | did not inhibit the binding; also recorded: nor did it inhibit the binding; also recorded: minimal effect | did not inhibit the binding; also recorded: minimal effect | did not inhibit the binding | low affinity | did not inhibit the binding; also recorded: nor did it inhibit the binding; also recorded: minimal effect | did not inhibit the binding | did not inhibit the binding; also recorded: minimal effect | – | –
3 | Ac-T-L-T-R-T-A-A-D-G-OH (Ac-TLTRTAADG-OH) [PAK(117-125)] | appears to enhance the binding of pili to steel rather than inhibiting | appears to enhance cell binding to steel rather than inhibiting | – | – | – | – | – | – | – | – | –
4 | Ac-KCTSDQDEQFIPKGCSK-OH (cysteine pairing not given here) [PAK(128-144)ox] | – | – | reduced the binding; also recorded: substantially inhibits; also recorded: effectively inhibits the adherence | reduced the binding; also recorded: substantially inhibits; also recorded: effectively inhibits the adherence | did not reduce the binding; also recorded: had no effect | – | reduced the binding; also recorded: substantially inhibits; also recorded: effectively inhibits the adherence | reduced the binding; also recorded: inhibited the binding | reduced the binding | ~0.2 nM | ~4 nM
